From patent US4659728A, “Hydroxy substituted 4,5-diphenyl-2-oxazole propanoic acid” (American Home Products Corporation, priority 1985, dated 1987)

Legend:
[1] = system: carrageenan paw edema in the rat; test: Rat carrageenan edema; assay type: in vivo, rat (male Sprague-Dawley); settings: 1 h before carrageenan, edema at 3 h, *p ≤ 0.01 from control
Method: (§1) The antiinflammatory utility of the compounds of this invention was established by standard procedures for evaluating antiinflammatory agents, namely, carrageenan paw edema in the rat and adjuvant arthritis (polyarthritis) in the rat. These procedures and the results obtained are summarized below:
(§2) Groups of 6 male Sprague-Dawley rats (Honey Brook), weighing between 140-160 g were used in these experiments. Drugs were administered p.o. in 0.5% methylcellulose (400 centipoise). One hour after administering drugs or vehicle, 0.1 ml of 1% carrageenan was injected subplantar into the right hind paw. Right paw volumes were measured prior to carrageenan injection in milliliters using a mercury plethysmograph (i.e., zero time reading). After 3 hours, right paw volumes were remeasured and paw edema was calculated for each rat by subtracting the zero time reading from the 3 hour reading. Percent change in paw edema was calculated.

[2] = system: adjuvant arthritis (polyarthritis) in the rat; test: Rat adjuvant arthritis; assay type: in vivo, rat (male Lewis); settings: oral dose 150 mg/kg, days 0 to 15 except weekends; *p ≤ 0.01 from control
Method: as §1
(§3) Groups of 10 male Lewis rats (Charles River), weighing between 150-170 g were injected s.c. into the right paw with desiccated Mycobacterium butyricum (0.5 mg/0.1 ml) suspended in light mineral oil. Drugs were administered orally in 0.5% methylcellulose. The following dosing regimen was used: days 0 to 15 except for weekends. Both hind paw volumes, in milliliters, were measured by mercury plethysmography at the time of injection of the complete adjuvant (day 0). Paw volumes were measured on day 4 (injected paw only) and on day 16 (uninjected paw). Drug effects were expressed as percentage change from arthritic controls.

inflammation = test: Antiinflammatory activity overall (standard procedures: carrageenan paw edema and adjuvant arthritis in the rat); assay type: in vivo; settings: compared with oxaprozin
Method: as §1, §2
as §3, with “Drugs were administered orally in 0.5% methylcellulose. The following dosing regimen was used: days 0 to 15 except for weekends.” left out, “Drug effects were expressed as percentage change from arthritic controls.” left out

| SMILES | % Inhibition of control paw edema ([1]; oral dose 150 mg/kg) | % Inhibition of control uninjected paw edema at day 16 [2] | effectiveness in inhibiting inflammation (inflammation) | % Inhibition of control paw edema ([1]; oral dose 200 mg/kg) |
| --- | --- | --- | --- | --- |
| O=C(O)CCc1nc(-c2ccccc2)c(-c2ccc(O)cc2)o1 [Example 1, 5-(4-hydroxyphenyl)-4-phenyl-2-oxazolepropanoic acid] | 43% | 36% | as effective as oxaprozin in inhibiting inflammation | – |
| O=C(O)CCc1nc(-c2ccc(O)cc2)c(-c2ccccc2)o1 [Example 2, 4-(4-Hydroxyphenyl)-5-phenyl-2-oxazolepropanoic acid] | 46% | 30% | as effective as oxaprozin in inhibiting inflammation | – |
| O=C(O)CCc1nc(-c2ccccc2)c(-c2ccccc2)o1 [Oxaprozin, 4,5-diphenyl-2-oxazolepropanoic acid, reference compound] | – | 25% | – | 51% |
